# Test results reported in article PMC10176470, “Engaging a Non-catalytic Cysteine Residue Drives Potent and Selective Inhibition of Caspase-6” (Journal of the American Chemical Society, 2023).
# Legend:
# Type in all cases: cell-based
# [1] = molecular target: T1, proteins of HEK293T cells transiently overexpressing caspase-6 (Homo sapiens, UniProt P54136); details: exp_ref Probe; protein RARS (P54136); analysis C6
# T1 sequence (P54136 1-660): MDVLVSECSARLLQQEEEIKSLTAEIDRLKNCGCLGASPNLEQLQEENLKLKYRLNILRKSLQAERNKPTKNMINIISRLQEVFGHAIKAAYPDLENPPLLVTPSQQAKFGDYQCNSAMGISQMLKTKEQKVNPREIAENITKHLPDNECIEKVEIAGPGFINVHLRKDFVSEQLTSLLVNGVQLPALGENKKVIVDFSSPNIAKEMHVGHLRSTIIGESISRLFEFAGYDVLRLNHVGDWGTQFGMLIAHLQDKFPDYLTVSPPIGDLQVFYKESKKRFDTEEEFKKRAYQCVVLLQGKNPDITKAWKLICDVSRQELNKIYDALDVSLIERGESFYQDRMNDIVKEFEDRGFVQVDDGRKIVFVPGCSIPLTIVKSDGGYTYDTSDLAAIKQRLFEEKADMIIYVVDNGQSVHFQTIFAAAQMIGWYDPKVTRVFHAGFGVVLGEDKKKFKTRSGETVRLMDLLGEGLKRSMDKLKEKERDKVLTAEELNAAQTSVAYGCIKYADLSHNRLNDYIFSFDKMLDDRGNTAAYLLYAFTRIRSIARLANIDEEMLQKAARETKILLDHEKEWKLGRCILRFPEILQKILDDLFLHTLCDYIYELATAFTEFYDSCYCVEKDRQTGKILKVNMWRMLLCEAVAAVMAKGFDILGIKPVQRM
# [2] = molecular target: proteins of HEK293T cells transiently overexpressing caspase-6 (Homo sapiens, UniProt P11142); details: protein HSPA8 (P11142)
# [3] = molecular target: proteins of HEK293T cells transiently overexpressing caspase-6 (Homo sapiens, UniProt Q07020); details: Probe; protein RPL18 Q07020
# [4] = molecular target: proteins of HEK293T cells transiently overexpressing caspase-6 (Homo sapiens, UniProt P11586); details: Probe; protein MTHFD1 P11586
# [5] = molecular target: proteins of HEK293T cells transiently overexpressing caspase-6 (Homo sapiens, UniProt Q13148); details: protein TARDBP (Q13148); exp_ref Probe; analysis C6
# [6] = molecular target: T2, proteins of HEK293T cells transiently overexpressing caspase-6 (Homo sapiens, UniProt Q92945); details: protein KHSRP (Q92945)
# T2 sequence (Q92945 1-711): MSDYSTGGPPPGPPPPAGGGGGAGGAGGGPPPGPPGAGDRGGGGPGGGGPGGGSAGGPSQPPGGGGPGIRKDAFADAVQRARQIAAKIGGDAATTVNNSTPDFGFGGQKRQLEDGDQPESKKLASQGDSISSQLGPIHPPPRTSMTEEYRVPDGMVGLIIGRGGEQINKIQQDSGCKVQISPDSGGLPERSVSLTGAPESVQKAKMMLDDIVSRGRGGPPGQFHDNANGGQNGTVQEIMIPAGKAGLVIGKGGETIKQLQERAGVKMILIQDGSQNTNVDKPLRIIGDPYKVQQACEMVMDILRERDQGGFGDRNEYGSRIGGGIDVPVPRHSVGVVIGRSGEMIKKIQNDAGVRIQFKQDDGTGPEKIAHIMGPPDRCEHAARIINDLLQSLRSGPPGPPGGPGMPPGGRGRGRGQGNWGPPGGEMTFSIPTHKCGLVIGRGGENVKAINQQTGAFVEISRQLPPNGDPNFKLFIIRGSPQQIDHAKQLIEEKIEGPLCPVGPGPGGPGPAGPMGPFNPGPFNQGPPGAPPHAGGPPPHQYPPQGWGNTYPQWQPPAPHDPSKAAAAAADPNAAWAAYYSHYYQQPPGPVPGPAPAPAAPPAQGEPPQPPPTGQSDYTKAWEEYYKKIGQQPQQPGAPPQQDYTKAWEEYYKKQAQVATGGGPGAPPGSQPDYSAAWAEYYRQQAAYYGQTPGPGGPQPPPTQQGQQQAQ
# [7] = molecular target: T3, proteins of HEK293T cells transiently overexpressing caspase-6 (Homo sapiens, UniProt Q96F45); details: protein ZNF503 (Q96F45), analysis C6
# T3 sequence (Q96F45 1-646): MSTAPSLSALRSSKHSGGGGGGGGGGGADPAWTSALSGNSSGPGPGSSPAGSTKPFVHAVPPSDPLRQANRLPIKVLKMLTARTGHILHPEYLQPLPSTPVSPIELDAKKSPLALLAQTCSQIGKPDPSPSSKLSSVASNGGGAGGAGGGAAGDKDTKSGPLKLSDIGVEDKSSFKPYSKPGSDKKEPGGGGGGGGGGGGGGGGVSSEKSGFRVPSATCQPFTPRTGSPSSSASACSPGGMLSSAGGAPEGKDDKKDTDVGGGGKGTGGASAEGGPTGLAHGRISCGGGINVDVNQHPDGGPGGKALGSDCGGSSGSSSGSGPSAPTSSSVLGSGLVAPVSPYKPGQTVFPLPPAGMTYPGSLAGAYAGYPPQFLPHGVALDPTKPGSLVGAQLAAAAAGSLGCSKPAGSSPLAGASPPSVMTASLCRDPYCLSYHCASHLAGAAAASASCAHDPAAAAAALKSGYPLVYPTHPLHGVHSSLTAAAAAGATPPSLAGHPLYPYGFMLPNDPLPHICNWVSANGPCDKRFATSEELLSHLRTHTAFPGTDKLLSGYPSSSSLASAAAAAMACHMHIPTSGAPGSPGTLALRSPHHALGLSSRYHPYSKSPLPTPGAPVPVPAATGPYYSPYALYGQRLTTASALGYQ
# Sequence of proteins of HEK293T cells transiently overexpressing caspase-6 (Homo sapiens, UniProt P11142) (P11142 whole entry): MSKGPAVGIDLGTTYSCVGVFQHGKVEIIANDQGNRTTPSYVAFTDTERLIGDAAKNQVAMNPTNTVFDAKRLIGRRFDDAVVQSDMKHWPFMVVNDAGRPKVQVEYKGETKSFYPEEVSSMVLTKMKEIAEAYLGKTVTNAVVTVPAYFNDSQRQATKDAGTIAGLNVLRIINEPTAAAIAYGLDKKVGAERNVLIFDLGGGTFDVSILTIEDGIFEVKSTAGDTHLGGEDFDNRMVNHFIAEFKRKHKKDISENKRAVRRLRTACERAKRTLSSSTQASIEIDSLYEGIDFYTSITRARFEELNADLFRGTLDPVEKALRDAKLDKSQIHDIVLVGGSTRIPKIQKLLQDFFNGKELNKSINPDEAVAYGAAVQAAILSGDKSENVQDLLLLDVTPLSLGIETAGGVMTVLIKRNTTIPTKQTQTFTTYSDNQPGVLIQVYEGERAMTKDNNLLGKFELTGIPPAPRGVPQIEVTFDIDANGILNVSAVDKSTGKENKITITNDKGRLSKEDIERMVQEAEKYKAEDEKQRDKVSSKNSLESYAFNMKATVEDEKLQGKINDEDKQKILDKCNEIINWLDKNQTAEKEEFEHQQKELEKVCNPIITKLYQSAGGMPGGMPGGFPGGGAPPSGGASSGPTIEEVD
# Sequence of proteins of HEK293T cells transiently overexpressing caspase-6 (Homo sapiens, UniProt Q13148) (Q13148 whole entry): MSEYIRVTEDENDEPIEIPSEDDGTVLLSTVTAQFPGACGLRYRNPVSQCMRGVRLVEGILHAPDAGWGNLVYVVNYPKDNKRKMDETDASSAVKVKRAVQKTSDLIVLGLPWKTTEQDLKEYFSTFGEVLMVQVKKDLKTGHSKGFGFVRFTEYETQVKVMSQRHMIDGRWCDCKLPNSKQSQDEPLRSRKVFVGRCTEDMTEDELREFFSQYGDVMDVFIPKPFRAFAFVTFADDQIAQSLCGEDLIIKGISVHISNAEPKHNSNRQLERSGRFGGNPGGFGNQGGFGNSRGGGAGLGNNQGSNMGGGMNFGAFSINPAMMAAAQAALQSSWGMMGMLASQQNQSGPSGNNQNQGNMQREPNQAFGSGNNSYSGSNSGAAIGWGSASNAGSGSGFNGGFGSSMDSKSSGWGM
# Sequence of proteins of HEK293T cells transiently overexpressing caspase-6 (Homo sapiens, UniProt P11586) (P11586 whole entry): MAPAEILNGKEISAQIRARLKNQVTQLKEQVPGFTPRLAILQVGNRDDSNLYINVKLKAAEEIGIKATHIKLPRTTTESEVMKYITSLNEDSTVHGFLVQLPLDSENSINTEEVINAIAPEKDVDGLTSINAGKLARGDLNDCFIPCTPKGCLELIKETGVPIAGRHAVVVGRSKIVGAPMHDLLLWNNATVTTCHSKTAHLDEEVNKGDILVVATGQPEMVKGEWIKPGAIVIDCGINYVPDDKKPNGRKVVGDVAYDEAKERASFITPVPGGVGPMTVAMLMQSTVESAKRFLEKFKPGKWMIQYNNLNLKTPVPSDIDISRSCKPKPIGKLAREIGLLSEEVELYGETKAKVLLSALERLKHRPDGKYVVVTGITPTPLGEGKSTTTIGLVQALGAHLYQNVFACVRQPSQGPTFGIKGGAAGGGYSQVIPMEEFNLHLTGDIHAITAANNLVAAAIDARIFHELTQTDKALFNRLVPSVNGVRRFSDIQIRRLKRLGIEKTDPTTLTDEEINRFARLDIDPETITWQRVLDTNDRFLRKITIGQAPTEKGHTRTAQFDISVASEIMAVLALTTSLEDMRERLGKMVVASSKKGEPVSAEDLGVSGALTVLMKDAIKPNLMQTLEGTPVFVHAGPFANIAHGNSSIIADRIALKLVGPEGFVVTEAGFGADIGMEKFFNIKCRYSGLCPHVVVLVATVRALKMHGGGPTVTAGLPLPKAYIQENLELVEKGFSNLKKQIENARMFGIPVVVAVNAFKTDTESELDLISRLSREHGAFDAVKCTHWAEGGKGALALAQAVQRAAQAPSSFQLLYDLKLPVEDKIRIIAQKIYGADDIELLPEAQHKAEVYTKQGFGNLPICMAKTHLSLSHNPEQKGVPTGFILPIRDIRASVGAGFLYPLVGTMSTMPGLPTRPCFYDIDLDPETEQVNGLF
structure (smiles),measurement,setting,value
C#CCOc1ccc([C@@H]2C[C@@H](C(=O)Nc3ccc(OC(F)(F)F)cc3)CN(S(=O)(=O)C=C)C2)cc1 (relative stereo) [13-t],enrich.exp.med,[1],0.9191
same,enrich.exp.med,"[2]; exp_ref Probe, analysis C6",0.3873
same,enrich.exp.med.lin,[2],1.308
same,enrich.exp.med.log2,[2],0.3873
same,enrich.exp.med,[3],-0.6313
same,enrich.exp.med,[4],-1.178
same,enrich.exp.med,[5],1.294
same,enrich.exp.med,"[6]; exp_ref Probe, analysis C6",0.3732
same,enrich.exp.med.lin,[6],1.295
same,enrich.exp.med.log2,[6],0.3732
same,enrich.exp.med.lin,[7]; Expt Probe,59.486
same,enrich.exp.med.log2,[7]; Expt Probe,5.894
same,enrich.exp.med,[7]; exp_ref Probe,5.894
